How the values were obtained:
[1] = biological target: GDP-bound KRAS protein (aa 1-169), containing both G12D and C118A amino acid substitutions (Homo sapiens, UniProt P01116, C118A/G12D); experiment: KRAS G12D Coupled Nucleotide Exchange Assay; format: biochemical; details: 2 h compound pre-incubation
Protocol: Following compound pre-incubation, purified SOS protein (aa 564-1049) and GTP (Roche 10106399001) were added to the assay wells and incubated for an additional 30 min. […] The assay plates were then read on a PerkinElmer EnVision Multilabel Reader, using AlphaScreen® technology, and data were analyzed using a 4-parameter logistic model to calculate IC50 values.

[2] = system: Phosphorylation of ERK1/2 in AsPC-1 cells; experiment: Phospho-ERK1/2 MSD Assay (AsPC-1 cells); format: cell-based; details: Homo sapiens, ASPC1, 2 h, 2 hours treatment, read-out: p-ERK (AsPC-1 cells) IC50
Outline: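 Read-out: MSD electrochemiluminescent detection of phosphorylated ERK1/2 in whole-cell lysates, fitted to a 4-parameter logistic curve for IC50. Prior to lysis, AsPC-1 cells (25,000 per well) received a 2 h compound dose-response at 37 °C.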

[3] = biological target: His-tagged KRAS G12D protein (Homo sapiens, UniProt P01116, G12D); experiment: KRAS G12D TR-FRET Assay; format: binding
His-tagged KRAS G12D protein, sequence (P01116 1-188 isoform P01116-2 G12D): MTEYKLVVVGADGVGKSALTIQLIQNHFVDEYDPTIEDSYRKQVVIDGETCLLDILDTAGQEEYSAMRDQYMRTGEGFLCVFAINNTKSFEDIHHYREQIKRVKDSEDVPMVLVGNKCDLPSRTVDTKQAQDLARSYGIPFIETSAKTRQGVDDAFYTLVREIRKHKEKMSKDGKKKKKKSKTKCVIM

[4] = system: Phosphorylation of ERK1/2 in A-427 cells; experiment: Phospho-ERK1/2 MSD Assay (A-427 cells); format: cell-based; details: Homo sapiens, A-427, 2 h, 2 h treatment, read-out: p-ERK (A427 cells) IC50
Outline: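 ERK1/2 phosphorylation measured by Meso Scale whole-cell lysate assay after A-427 cells were exposed to a titration of compound for 2 h at 37 °C.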

GDP-bound KRAS protein (aa 1-169), containing both G12D and C118A amino acid substitutions, sequence (P01116 1-169 isoform P01116-2 G12D/C118A): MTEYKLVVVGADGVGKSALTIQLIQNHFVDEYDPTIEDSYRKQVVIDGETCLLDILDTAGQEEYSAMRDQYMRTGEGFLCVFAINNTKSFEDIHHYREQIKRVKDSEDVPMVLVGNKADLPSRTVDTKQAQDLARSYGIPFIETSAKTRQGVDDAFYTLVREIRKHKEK

| Structure (SMILES) | Avg 2 h Coupled Exchange IC50 [1] [nM] | IC50 [2] [nM] | IC50 [3] [nM] | IC50 [4] [nM] |
| --- | --- | --- | --- | --- |
| CCc1cccc2cc(O)cc(-c3ccc4c(N5C[C@H]6CC[C@@H](C5)N6)nc(OC[C@@]56CCCN5C[C@H](F)C6)nc4c3F)c12 [Example 169, 4-(4-((1R,5S)-3,8-diazabicyclo[3.2.1]octan-3-yl)-8-fluoro-2-(((2R,7aS)-2-fluorotetrahydro-1H-pyrrolizin-7a(5H)-yl)methoxy)quinazolin-7-yl)-5-ethylnaphthalen-2-ol] | 5 | 72 | 5 | 9 |
| CCc1cccc2cc(O)cc(-c3c(Cl)cc4c(N5C[C@H]6CC[C@@H](C5)N6)nc(OC[C@@]56CCCN5C[C@H](F)C6)nc4c3F)c12 [Example 170, 4-(4-((1R,5S)-3,8-diazabicyclo[3.2.1]octan-3-yl)-6-chloro-8-fluoro-2-(((2R,7aS)-2-fluorotetrahydro-1H-pyrrolizin-7a(5H)-yl)methoxy)quinazolin-7-yl)-5-ethylnaphthalen-2-ol] | 3 | 126 | 3 | 86 |
| CCc1cccc2cc(O)cc(-c3cc4nc(OC[C@@]56CCCN5C[C@H](F)C6)nc(N5C[C@H]6CC[C@@H](C5)N6)c4cc3F)c12 [Example 171, 4-(4-((1R,5S)-3,8-diazabicyclo[3.2.1]octan-3-yl)-6-fluoro-2-(((2R,7aS)-2-fluorotetrahydro-1H-pyrrolizin-7a(5H)-yl)methoxy)quinazolin-7-yl)-5-ethylnaphthalen-2-ol] | 3 | 169 | 6 | 42 |
| CCc1c(F)ccc2cc(O)cc(-c3c(F)cc4c(N5[C@@H]6CCC[C@H]5CNC6)nc(OC[C@@]56CCCN5C[C@H](F)C6)nc4c3F)c12 [Example 172, 4-(4-((1R,5S)-3,9-diazabicyclo[3.3.1]nonan-9-yl)-6,8-difluoro-2-(((2R,7aS)-2-fluorotetrahydro-1H-pyrrolizin-7a(5H)-yl)methoxy)quinazolin-7-yl)-5-ethyl-6-fluoronaphthalen-2-ol] | 36 | 2920 | 85 | 5430 |
| Oc1cc(-c2cc3nc(OC[C@@]45CCCN4C[C@H](F)C5)nc(N4C[C@@H]5CC[C@H]4CN5)c3cc2F)c2c(F)c(F)ccc2c1 [Example 173, 4-(4-((1S,4S)-2,5-diazabicyclo[2.2.2]octan-2-yl)-6-fluoro-2-(((2R,7aS)-2-fluorotetrahydro-1H-pyrrolizin-7a(5H)-yl)methoxy)quinazolin-7-yl)-5,6-difluoronaphthalen-2-ol] | 3 | 366 | 2 | 153 |
| CCc1c(F)ccc2cc(O)cc(-c3cc4nc(OC[C@@]56CCCN5C[C@H](F)C6)nc(N5C[C@@H]6CC[C@H]5CN6)c4cc3F)c12 [Example 174, 4-(4-((1S,4S)-2,5-diazabicyclo[2.2.2]octan-2-yl)-6-fluoro-2-(((2R,7aS)-2-fluorotetrahydro-1H-pyrrolizin-7a(5H)-yl)methoxy)quinazolin-7-yl)-5-ethyl-6-fluoronaphthalen-2-ol] | 5 | 64 | 4 | 57 |
| C#Cc1cccc2cc(O)cc(-c3c(F)cc4c(N5C[C@@H]6CC[C@H]5CN6)nc(OC[C@@]56CCCN5C[C@H](F)C6)nc4c3F)c12 [Example 180, 4-(4-((1S,4S)-2,5-diazabicyclo[2.2.2]octan-2-yl)-6,8-difluoro-2-(((2R,7aS)-2-fluorotetrahydro-1H-pyrrolizin-7a(5H)-yl)methoxy)quinazolin-7-yl)-5-ethynylnaphthalen-2-ol] | 4 | 18 | 3 | 3 |
| C#Cc1c(F)ccc2cc(O)cc(-c3cc4nc(OC[C@@]56CCCN5C[C@H](F)C6)nc(N5C[C@H]6CC[C@@H](C5)N6)c4cc3F)c12 [Example 181, 4-(4-((1R,5S)-3,8-diazabicyclo[3.2.1]octan-3-yl)-6-fluoro-2-(((2R,7aS)-2-fluorotetrahydro-1H-pyrrolizin-7a(5H)-yl)methoxy)quinazolin-7-yl)-5-ethynyl-6-fluoronaphthalen-2-ol] | 1 | 18 | 1 | 3 |
| C#Cc1cccc2cc(O)cc(-c3cc4nc(OC[C@@]56CCCN5C[C@H](F)C6)nc(N5C[C@H]6CC[C@@H](C5)N6)c4cc3F)c12 [Example 182, 4-(4-((1R,5S)-3,8-diazabicyclo[3.2.1]octan-3-yl)-6-fluoro-2-(((2R,7aS)-2-fluorotetrahydro-1H-pyrrolizin-7a(5H)-yl)methoxy)quinazolin-7-yl)-5-ethynylnaphthalen-2-ol] | 2 | 33 | 1 | 4 |
| C#Cc1cccc2cc(O)cc(-c3c(F)cc4c(N5C[C@H]6C[C@@H](C5)N6)nc(OC[C@@]56CCCN5C[C@H](F)C6)nc4c3F)c12 [Example 183, 4-(4-((1R,5S)-3,6-diazabicyclo[3.1.1]heptan-3-yl)-6,8-difluoro-2-(((2R,7aS)-2-fluorotetrahydro-1H-pyrrolizin-7a(5H)-yl)methoxy)quinazolin-7-yl)-5-ethynylnaphthalen-2-ol] | 4 | 5400 | 2 | 1480 |
| C#Cc1cccc2cc(O)cc(-c3ccc4c(N5C[C@H]6CC[C@@H](C5)N6)nc(OC[C@@]56CCCN5C[C@H](F)C6)nc4c3F)c12 [Example 185, 4-(4-((1R,5S)-3,8-diazabicyclo[3.2.1]octan-3-yl)-8-fluoro-2-(((2R,7aS)-2-fluorotetrahydro-1H-pyrrolizin-7a(5H)-yl)methoxy)quinazolin-7-yl)-5-ethynylnaphthalen-2-ol] | 1 | 16 | 1 | 1 |
| C#Cc1c(F)ccc2cc(O)cc(-c3ccc4c(N5C[C@H]6CC[C@@H](C5)N6)nc(OC[C@@]56CCCN5C[C@H](F)C6)nc4c3F)c12 [Example 186, 4-(4-((1R,5S)-3,8-diazabicyclo[3.2.1]octan-3-yl)-8-fluoro-2-(((2R,7aS)-2-fluorotetrahydro-1H-pyrrolizin-7a(5H)-yl)methoxy)quinazolin-7-yl)-5-ethynyl-6-fluoronaphthalen-2-ol] | 3 | 5 | 3 | 1 |
| C#Cc1c(F)ccc2cc(O)cc(-c3ccc4c(N5[C@@H]6CC[C@H]5CNC6)nc(OC[C@@]56CCCN5C[C@H](F)C6)nc4c3F)c12 [Example 187, 4-(4-((1R,5S)-3,8-diazabicyclo[3.2.1]octan-8-yl)-8-fluoro-2-(((2R,7aS)-2-fluorotetrahydro-1H-pyrrolizin-7a(5H)-yl)methoxy)quinazolin-7-yl)-5-ethynyl-6-fluoronaphthalen-2-ol] | 1 | 16 | 2 | 5 |
| C#Cc1c(F)ccc2cc(O)cc(-c3c(F)cc4c(N5C[C@@H]6CC[C@H]5CN6)nc(OC[C@@]56CCCN5C[C@H](F)C6)nc4c3F)c12 [Example 188, 4-(4-((15,4S)-2,5-diazabicyclo[2.2.2]octan-2-yl)-6,8-difluoro-2-(((2R,7aS)-2-fluorotetrahydro-1H-pyrrolizin-7a(5H)-yl)methoxy)quinazolin-7-yl)-5-ethynyl-6-fluoronaphthalen-2-ol] | 2 | 16 | 2 | 2 |
